For experiment [1], the system named is mGluRs 1, 2, 3, 4, 7 and 8. The experiment is described as follows: Selectivity versus other mGluRs.
The target of experiment [2] is MPEP allosteric binding site on mGluR5 (Rattus norvegicus, UniProt P31424). As to the kind of experiment: Displacement of [3H]3-methoxy-5-.

These results are taken from article PMC3177597 (Bioorganic & medicinal chemistry letters, 2009).

Broadly, the Ki is the dissociation constant of the complex between target and ligand, obtained from inhibition or displacement.

Chain of MPEP allosteric binding site on mGluR5 (P31424 21-1203): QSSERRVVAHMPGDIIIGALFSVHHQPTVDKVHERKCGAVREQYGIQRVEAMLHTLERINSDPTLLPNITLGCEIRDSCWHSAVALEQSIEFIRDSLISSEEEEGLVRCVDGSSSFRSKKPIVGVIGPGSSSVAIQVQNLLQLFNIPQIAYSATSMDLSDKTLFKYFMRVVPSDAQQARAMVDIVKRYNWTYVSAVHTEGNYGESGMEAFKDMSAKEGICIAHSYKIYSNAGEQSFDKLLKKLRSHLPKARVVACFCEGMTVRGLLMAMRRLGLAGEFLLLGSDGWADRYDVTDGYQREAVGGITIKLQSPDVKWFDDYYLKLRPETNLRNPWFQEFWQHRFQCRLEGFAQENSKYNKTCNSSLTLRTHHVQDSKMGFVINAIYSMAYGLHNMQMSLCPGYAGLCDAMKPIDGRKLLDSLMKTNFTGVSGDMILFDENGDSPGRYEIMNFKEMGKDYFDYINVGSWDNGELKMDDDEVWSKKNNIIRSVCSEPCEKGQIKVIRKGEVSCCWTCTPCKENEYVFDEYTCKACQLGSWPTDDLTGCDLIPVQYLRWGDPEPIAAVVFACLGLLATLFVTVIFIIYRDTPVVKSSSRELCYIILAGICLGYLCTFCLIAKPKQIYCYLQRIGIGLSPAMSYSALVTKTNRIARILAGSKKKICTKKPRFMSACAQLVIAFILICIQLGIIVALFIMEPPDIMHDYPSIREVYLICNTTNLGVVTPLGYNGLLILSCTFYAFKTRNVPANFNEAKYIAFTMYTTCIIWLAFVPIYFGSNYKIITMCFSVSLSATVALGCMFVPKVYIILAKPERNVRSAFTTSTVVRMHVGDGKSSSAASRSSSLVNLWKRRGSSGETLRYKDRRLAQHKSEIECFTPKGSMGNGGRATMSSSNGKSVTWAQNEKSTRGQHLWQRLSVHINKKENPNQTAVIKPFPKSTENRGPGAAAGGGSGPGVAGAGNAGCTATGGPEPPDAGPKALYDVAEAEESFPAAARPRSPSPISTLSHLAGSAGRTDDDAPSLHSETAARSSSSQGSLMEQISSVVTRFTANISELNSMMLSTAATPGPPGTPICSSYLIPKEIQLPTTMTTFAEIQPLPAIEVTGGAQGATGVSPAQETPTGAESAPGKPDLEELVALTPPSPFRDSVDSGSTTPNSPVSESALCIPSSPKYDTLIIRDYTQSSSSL

As to `COc1ccccc1C(=O)Nc1cccc(NC(=O)c2cccc(Cl)c2)c1` [compound 8], the “selectivity versus mGluRs 1, 2, 3, 4, 7 and 8” value in experiment [1] is “selective”. This compound had a Ki in experiment [2] of 1100 nM.
Consider `O=C(Nc1ccccc1O)c1cccc(N2C(=O)c3ccccc3C2=O)c1` [compound 9, 3-(phthalimidyl)-N-(2-hydroxyphenyl)benzamide], for which the “selectivity versus mGluRs 1, 2, 3, 4, 7 and 8” value in experiment [1] is “selective”. The compound also yielded a Ki in experiment [2] of 319 nM.
